Results from patent US7825107B2, “Method of treating men suffering from chronic nonbacterial prostatitis with SERM compounds or aromatase inhibitors” (Hormos Medical Ltd., priority 2006, dated 2010).

What was measured:
[1] = test system: effect of estradiol on the prostate (FRA2 or PR expression); assay: Estrogen antagonist effect in the prostate of castrated Noble rats, with and without estradiol, measured by FRA2 or PR expression; type: in vivo; conditions: three weeks, 3, 10 and 30 mg/kg, with and without estradiol 70 ug/day
[2] = Estrogen antagonist treatment of prostatitis in rats treated with T and E2; type: in vivo; conditions: 3 weeks T 240 ug/day and E2 70 ug/day, 2 doses of 5 mg/kg on the third week
Description: As prostatitis can be reversed by administering an antiestrogen, the condition is seen to be estrogen dependent.

Row | SMILES | effect of estradiol on the prostate, measured by FRA2 or PR expression [1] | effect on prostatitis compared to the control group treated with T and E2 only [2]
1 | OCCOCCOc1ccc(/C(=C(/CCCl)c2ccccc2)c2ccccc2)cc1 [fispemifene] | dose dependently inhibited the effect of estradiol on the prostate | 
2 | C[C@]12CC[C@@H]3c4ccc(O)cc4C[C@@H](CCCCCCCCC[S+]([O-])CCCC(F)(F)C(F)(F)F)[C@H]3[C@@H]1CC[C@@H]2O (some centres unmarked) [fulvestrant] |  | significantly reduced the prostatitis
